Results taken from patent US8263592B2, “Equilibrative nucleoside transporter ENT1 inhibitors” (Janssen Pharmaceutica NV, priority 2007, dated 2012).
Where a name gives a salt, the structure may show the parent alone.

Tests used:
human ENT1 transporter = target: T1, human ENT1 transporter (Homo sapiens, UniProt Q99808); test: hENT1-NBMPR-ERYTH binding assay ([3H]NBMPR, human erythrocytes); details: [3H]NBMPR 1 nM, washed human red blood cells 1:200, 30 minutes at room temperature; pIC50=-log(IC50); read-out: pIC50 values for ENT1 transporter inhibition (converted)
T1 construct: with washed red blood cells diluted 1:200 in assay buffer; from tissue; host or cells: human erythrocytes (washed red blood cells from whole blood)
T1 sequence (Q99808 1-456): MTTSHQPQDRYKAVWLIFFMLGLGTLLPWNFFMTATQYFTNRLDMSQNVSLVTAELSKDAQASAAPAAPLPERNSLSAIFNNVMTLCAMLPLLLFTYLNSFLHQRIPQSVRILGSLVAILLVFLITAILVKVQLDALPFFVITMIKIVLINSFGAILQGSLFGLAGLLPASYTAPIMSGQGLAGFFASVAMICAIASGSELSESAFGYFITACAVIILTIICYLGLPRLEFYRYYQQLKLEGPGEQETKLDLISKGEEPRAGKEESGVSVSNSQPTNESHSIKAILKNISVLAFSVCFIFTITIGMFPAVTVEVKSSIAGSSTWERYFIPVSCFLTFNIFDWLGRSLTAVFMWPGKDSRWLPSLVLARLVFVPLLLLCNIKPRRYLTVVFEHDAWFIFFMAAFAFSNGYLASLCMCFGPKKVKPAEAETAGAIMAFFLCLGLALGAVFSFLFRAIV
Description: D. Pharmacological Data D.1hENT1-NBMPR-ERYTH Assay
The affinity of compounds to the human ENT1 transporter was determined in a binding assay using [^3H]NBMPR (19.9 Ci/mmol) from Moravek Biochemicals (Brea, Calif.). Erythrocytes were isolated from freshly isolated EDTA anti-coagulated human blood. 4 ml human whole blood was diluted in 11 ml wash buffer (20 mM MOPS, 130 mM NaCl, pH 7.4) and centrifuged at 800 g for 5 minutes. Erythrocytes were washed two times with wash buffer by centrifugation at 800 g for 5 minutes and then resuspended in wash buffer to the original whole blood volume and stored at −80° C. Binding experiments were performed at apparent binding equilibrium (30 minutes incubation at room temperature) with washed red blood cells diluted 1:200 in assay buffer (20 mM Tris, 140 mM NaCl, […], 2 mM MgCl2, 0.1 mM EDTA, 5 mM Glucose, pH 7.4) and 1 nM of radioligand. Test compounds were pre-incubated with the red blood cells for 30 minutes at room temperature. Non-specific binding was estimated in the presence of 1 μM Draflazine. The incubation was stopped by rapid filtration using Unifilter-96 GF/C filter plates on a 96-well PerkinElmer Filtermate harvester followed by three washes with ice-cold assay buffer. Bound radioactivity was determined by liquid scintillation counting (Topcount, (PerkinElmer)).

## Cc1c(O)ccc2c1OC1(CCN(CCNC(=O)c3c(Cl)cccc3Cl)CC1)CC2=O (as salt: hydrochloric acid salt) [Compound 91]
other
  melting point: 187.06 °C

## COCCCNc1cc2c(cc1C)C(=O)CC1(CCN(CCNC(=O)c3c(Cl)cccc3Cl)CC1)O2 (as salt: oxalate) [Compound 133]
other
  melting point: 157.06 °C

## COC(=O)[C@H]1CC[C@H](Oc2cc3c(cc2C)C(=O)CC2(CCN(CCNC(=O)c4c(Cl)cccc4Cl)CC2)O3)CC1 (as salt: oxalate) [Compound 199]
other
  melting point: 191.24 °C

## Nc1cc2c(cc1Cl)C(=O)NC1(CCN(CCNC(=O)c3c(Cl)cccc3Cl)CC1)O2 [Compound 1]
Human ENT1 transporter
  IC50: 89.1 nM
other
  melting point: 245.39 °C

## COCNc1cc2c(cc1Cl)C(=O)NC1(CCN(CCNC(=O)c3c(Cl)cccc3Cl)CC1)O2 [Compound 2]
Human ENT1 transporter
  IC50: 6.46 nM

## CC(C)Nc1ccc2c(c1)OC1(CCN(CCNC(=O)c3c(Cl)cccc3Cl)CC1)NC2=O [Compound 3]
Human ENT1 transporter
  IC50: 4.27 nM

## Nc1cc2c(cc1Cl)CCC1(CCN(CCNC(=O)c3c(Cl)cccc3Cl)CC1)O2 [Compound 10]
Human ENT1 transporter
  IC50: 18.6 nM
other
  melting point: 191.14 °C

## CC(C)(C)OC(=O)N1CCC(Oc2cc3c(cc2Cl)C(=O)NC2(CCN(CCNC(=O)c4c(Cl)cccc4Cl)CC2)O3)CC1 [Compound 22]
Human ENT1 transporter
  IC50: 0.224 nM
other
  melting point: 172.85 °C

## O=C1NC2(CCN(CCNC(=O)c3c(Cl)cccc3Cl)CC2)Oc2cc(OC3CCNCC3)c(Cl)cc21 [Compound 23]
Human ENT1 transporter
  IC50: 10.2 nM

## CN1CCC(Oc2cc3c(cc2Cl)C(=O)NC2(CCN(CCNC(=O)c4c(Cl)cccc4Cl)CC2)O3)CC1 [Compound 26]
Human ENT1 transporter
  IC50: 11 nM

## CC(=O)N1CCC(Oc2cc3c(cc2Cl)C(=O)NC2(CCN(CCNC(=O)c4c(Cl)cccc4Cl)CC2)O3)CC1 [Compound 27]
Human ENT1 transporter
  IC50: 0.776 nM
other
  melting point: 146.87 °C

## CNCCCNc1cc2c(cc1Cl)C(=O)NC1(CCN(CCNC(=O)c3c(Cl)cccc3Cl)CC1)O2 [Compound 43]
Human ENT1 transporter
  IC50: 89.1 nM

## O=C1CC2(CCN(CCNC(=O)c3c(Cl)cccc3Cl)CC2)Oc2ccccc21 [Compound 45]
Human ENT1 transporter
  IC50: 417 nM
other
  melting point: 197.7 to 198.6 °C

## Cc1c(O)ccc2c1OC1(CCN(CCNC(=O)c3c(Cl)cccc3Cl)CC1)CC2=O [Compound 91]
Human ENT1 transporter
  IC50: 2.88 nM

## O=C1CC2(CCN(CCNC(=O)c3c(Cl)cccc3Cl)CC2)Oc2cc(O)ccc21 [Compound 93]
Human ENT1 transporter
  IC50: 120 nM
other
  melting point: 209.19 °C

## CC(=O)N1CCC(Nc2cc3c(cc2Cl)C(=O)NC2(CCN(CCNC(=O)c4c(Cl)cccc4Cl)CC2)O3)CC1 [Compound 96]
Human ENT1 transporter
  IC50: 0.776 nM
other
  melting point: 238.27 °C

## CCCCNc1ccc2c(c1)C(=O)CC1(CCN(CCNC(=O)c3c(Cl)cccc3Cl)CC1)O2 [Compound 97]
Human ENT1 transporter
  IC50: 12 nM
other
  melting point: 153.71 to 156.93 °C

## CC(=O)N1CCC(Oc2cc3c(cc2Cl)C=CC2(CCN(CCNC(=O)c4c(Cl)cccc4Cl)CC2)O3)CC1 [Compound 108]
Human ENT1 transporter
  IC50: 0.0447 nM

## CC(=O)N1CCC(Oc2cc3c(cc2Cl)CCC2(CCN(CCNC(=O)c4c(Cl)cccc4Cl)CC2)O3)CC1 [Compound 117]
Human ENT1 transporter
  IC50: 0.589 nM

## Cc1cc2c(cc1NC1CCCC1)OC1(CCN(CCNC(=O)c3c(Cl)cccc3Cl)CC1)CC2=O [Compound 127]
Human ENT1 transporter
  IC50: 0.776 nM

## Nc1ccc2c(c1Cl)OC1(CCN(CCNC(=O)c3c(Cl)cccc3Cl)CC1)CC2=O [Compound 130]
Human ENT1 transporter
  IC50: 9.77 nM
other
  melting point: 236.63 °C

## COCCCNc1cc2c(cc1C)C(=O)CC1(CCN(CCNC(=O)c3c(Cl)cccc3Cl)CC1)O2 [Compound 133]
Human ENT1 transporter
  IC50: 1.82 nM

## Cc1cc2c(cc1NCCCO)OC1(CCN(CCNC(=O)c3c(Cl)cccc3Cl)CC1)CC2=O [Compound 141]
Human ENT1 transporter
  IC50: 3.72 nM

## Cc1cccc(C)c1C(=O)NCCN1CCC2(CC1)NC(=O)c1cc(Cl)c(OC(C)C)cc1O2 [Compound 151]
Human ENT1 transporter
  IC50: 22.9 nM
other
  melting point: 201.61 to 204.2 °C

## Cc1cc(OC2CCCC2)c2c(c1)C(=O)CC1(CCN(CCNC(=O)c3c(Cl)cccc3Cl)CC1)O2 [Compound 189]
Human ENT1 transporter
  IC50: 2.57 nM
other
  melting point: 135.95 °C

## COC(=O)[C@H]1CC[C@H](Oc2cc3c(cc2C)C(=O)CC2(CCN(CCNC(=O)c4c(Cl)cccc4Cl)CC2)O3)CC1 [Compound 199]
Human ENT1 transporter
  IC50: 0.343 nM

## O=C1NC2(CCN(CCNC(=O)c3c(Cl)cccc3Cl)CC2)Oc2c1cc(Cl)cc2N1CCOCC1 [Compound 205]
Human ENT1 transporter
  IC50: 107 nM
other
  melting point: 245.16 °C

## O=C1CC2(CCN(CCNC(=O)c3c(Cl)cccc3Cl)CC2)Oc2c1ccc(NC1CCCC1)c2Cl [Compound 208]
Human ENT1 transporter
  IC50: 1.51 nM

## COC(=O)[C@H]1CC[C@@H](Oc2cc3c(cc2C)C(=O)CC2(CCN(CCNC(=O)c4c(Cl)cccc4Cl)CC2)O3)CC1 [Compound 222]
Human ENT1 transporter
  IC50: 0.531 nM

## O=C1NC2(CCN(CCNC(=O)c3c(Cl)cccc3Cl)CC2)Oc2c(NC3CCCC3)cc(Cl)cc21 [Compound 223]
Human ENT1 transporter
  IC50: 3.8 nM
other
  melting point: 238.02 °C

## CNc1cc2c(cc1Cl)CCC1(CCN(CCNC(=O)c3c(Cl)cccc3Cl)CC1)O2 [Compound 239]
Human ENT1 transporter
  IC50: 1.53 nM
